According to patent US20250059139A1, “COMPOUNDS FOR TREATMENT OF CANCER” (THE JOHNS HOPKINS UNIVERSITY, priority 2021, published 2025):
Read-outs that look alike come from different tables or passages of the source.

How the values were obtained:
[1] = system: HIF-1α protein in LNCaP cells; experiment: Nuclear HIF-1α protein level in LNCaP cells (immunoblot); format: cell-based, human; settings: LNCaP cells in vitro, read-out: IC50 for decreasing nuclear HIF-1α protein
Experimental: Western Blot Analysis. Analysis and quantification of protein expression via immunoblot was performed as previously described (Brennen 2021). All assays were performed with total cell lysates from an equal number (i.e., 100,000) of cells loaded per lane for accurate comparisons across cell lines and conditions.
[…] is an HDAC4 client (see, e.g., Isaacs 2013) binding between AA 603-788 in its inhibitory domain to HDAC4 (Seo et al. FEBS Lett 583, 55-604 (2009)). As a client, the HDAC4/NCoR1/HDAC3 complex deacetylates the N-terminal lysines, which stabilizes and thus activates HIF-1α as a transcription factor (see, e.g., Isaacs 2013). In LNCaP cells under normoxic conditions, HIF-1α protein is low, cytoplasmic, and mostly unphosphorylated; while under hypoxic conditions, it is increased, nuclear, and phosphorylated (i.e., slower migrating band on western blot) (see, e.g., Isaacs 2013) (FIG. 30). HDAC4 KD in LNCaP prostate cancer cells prevents deacetylation-dependent stabilization, resulting in a reduction of nuclear HIF-1α protein (FIG. 31). […] The causal importance of decreased HIF-1α protein for in vivo growth was evaluated by knocking down HIF-1α protein expression in LNCaP cells (FIG. 31), and assessing xenograft growth.

[2] = Pharmacokinetic (PK) analysis after oral dosing in mice; format: in vivo, mouse; settings: for half-life: oral, 10 mg/kg
Experimental: Oral Drug treatment. TasQ at the indicated dose was initially dissolved with equal molar 1 N sodium hydroxide. This solution was diluted with sterile water and the mixture stirred for 1 hr. The pH was then adjusted with 1 N HCl to 8.9 and 200 μL given daily via oral gavage.
Pharmacokinetic (PK) Analysis. Plasma or serum samples; 50 uL of plasma or serum was transferred into a 1.7 mL microfuge tube. Three volumes of acetonitrile containing 0.1% TFA was added and the sample was vortexed for 1 to 3 minute, then centrifuged at 13,000 RPM in a microcentrifuge. 120 uL of the resulting supernatant was loaded into a sample loop with a cut off volume of 100 uL and injected into the HPLC onto a C18 reverse phase column. The HPLC system was a WATERS 600 series quaternary system with a 2487 dual wavelength detector set at 215 nm and 332 nm. Mobile phase A was 5% Acetonitrile/water, 0.1% TFA Mobile phase B was 95% Acetonitrile/water, 0.1% TFA 1.5 mL/min 20% B to 98% B in 10 minutes, hold for 5 minutes return to initial condition for 4 minutes/Retention time for tasquinimod was 11 min, RT for ESATA20 was 13.3 min with no observable interference from endogenous mouse peaks.

liver Cyp1a1 = experiment: Mouse liver Cyp1a1 induction after oral dosing (Q-PCR); format: in vivo
From the text: Real-time quantitative PCR (Q-PCR) analysis. […] ID NO: 2) and […] ID NO: 3). […] ID NO: 4) and […] ID NO: 5).

[3] = system: human umbilical vein endothelial cells (HUVECs); experiment: Three dimensional (3D) endothelial sprouting assay; format: cell-based; settings: HUVEC, CM-supplemented 3D-fibrin cultures, read-out: IC90 for inhibiting endothelial cell sprouting
Experimental: Three Dimensional (3D) Endothelial Sprouting Assay. The assay was performed using a minimum of 3 replicate wells of a 48 well tissue culture plate per drug dose per experiment, repeated 3 independent times in which human umbilical vein endothelial cells (HUVECs) obtained from Lonza Walkersville Inc (Walkersville, MD) attached to gelatin-coated dextran microcarrier bead are embedded in a fibrin matrix as described previously (Brennen et al. Oncotarget 7, 71298-71308 (2016)).
Besides its therapeutic effects on cancer cells, TasQ's anti-cancer efficacy also involves its dose-dependent anti-angiogenic activity (see, e.g., Isaacs 2006, Olsson 2010, Dalrymple 2012), Isaacs 2013, Isaacs 2014, Brennen 2016). To clarify the MoA for this anti-angiogenic activity, a 3-dimensional (3D) endothelial cell sprouting assay was used. In this assay, human umbilical vein endothelial cells (HUVECs) in basal media supplemented with VEGF, EGF, FGF, IGF1 and 2% FBS in standard 2D cultures are attached to collagen-coated beads embedded in a 3D-fibrin gel in the same growth factor-supplemented media. […] This lack of sprouting is associated with an upregulation in Mef-2c mRNA (Table 2) and protein (FIG. 38), and its target genes (Table 2) like Alpha 2 Macroglobulin (A2M). […]

human AHR = target: T1, human AHR (Homo sapiens, UniProt P35869); experiment: Photo-affinity ligand (PAL) competitive binding to human AHR in liver cytosol of hAHR transgenic mice
T1 construct: from tissue; host or cells: liver cytosol of liver-specific hAHR transgenic mice
Experimental: AHR Binding Assay. Photo-affinity competitive ligand binding to the human AHR was performed as described previously (Brennen 2021).
This raises the issue of whether the induction of AHR target genes is a result of TasQ or one of its metabolites binds to AHR as a ligand. To test whether TasQ is an AHR ligand, liver cytosol lacking microsomal CYPs was isolated from liver-specific human AHR (hAHR)-expressing transgenic mice.

T1 sequence (P35869 11-848): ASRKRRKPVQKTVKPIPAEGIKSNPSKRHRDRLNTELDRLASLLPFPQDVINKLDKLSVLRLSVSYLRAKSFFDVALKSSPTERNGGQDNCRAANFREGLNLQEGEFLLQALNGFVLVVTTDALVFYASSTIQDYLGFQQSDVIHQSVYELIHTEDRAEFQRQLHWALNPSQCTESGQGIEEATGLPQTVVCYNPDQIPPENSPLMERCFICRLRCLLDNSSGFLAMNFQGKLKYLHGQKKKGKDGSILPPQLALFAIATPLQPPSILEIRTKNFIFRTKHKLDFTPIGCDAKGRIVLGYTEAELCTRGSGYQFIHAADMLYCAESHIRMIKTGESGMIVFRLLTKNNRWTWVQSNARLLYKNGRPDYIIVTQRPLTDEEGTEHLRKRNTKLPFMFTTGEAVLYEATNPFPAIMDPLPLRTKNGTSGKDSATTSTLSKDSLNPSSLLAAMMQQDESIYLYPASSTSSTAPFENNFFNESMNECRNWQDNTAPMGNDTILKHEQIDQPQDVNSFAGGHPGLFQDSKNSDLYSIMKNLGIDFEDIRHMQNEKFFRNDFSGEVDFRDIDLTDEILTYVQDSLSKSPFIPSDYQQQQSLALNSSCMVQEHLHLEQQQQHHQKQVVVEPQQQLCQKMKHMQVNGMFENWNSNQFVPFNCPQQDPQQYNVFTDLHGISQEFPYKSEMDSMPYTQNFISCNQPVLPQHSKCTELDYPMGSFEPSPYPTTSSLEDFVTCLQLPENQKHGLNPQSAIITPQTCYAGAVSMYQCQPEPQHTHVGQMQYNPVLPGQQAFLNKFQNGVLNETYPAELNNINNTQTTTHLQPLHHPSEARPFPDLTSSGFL

With `COc1cccc2c1c(O)c(C(=O)N(c1ccc(C(F)(F)F)cc1)C1CCCCC1)c(=O)n2C` [ESATA-20] the IC50 ([1]; Homo sapiens) was 1000 nM, the “fold lower bioavailability than TasQ” value ([2]; 10 mg/kg oral) was 5.5 fold and the “drug bound to serum proteins” value ([2]; mouse, in vivo) was > 98%. It also gave a half-life ([2]; mouse, serum, read-out: alpha half-life for tissue distribution (converted)) of 3 h, a half-life ([2]; mouse, serum, read-out: beta half-life for serum elimination) of 10 to 12 h and a Cmax ([2]; mouse, serum, 10 mg/kg oral dose) of 7.91 µM. The “induction of liver Cyp1a1” value (liver Cyp1a1; given orally at 30 mg/kg/d) was “lack of induction”, the IC90 [3] was 1000 nM and the “fold lower binding affinity than TasQ” value (human AHR; competitive PAL AHR binding assay and cell-based AHR-promoter assay) was 10 fold.

In the case of `COc1cccc2c1c(O)c(C(=O)N(C)c1ccc(C(F)(F)F)cc1)c(=O)n2C` [TasQ, Tasquinimod], the IC50 [1] is reported as 2500 nM, the Cmax ([2]; 10 mg/kg oral dose, read-out: serum Cmax) is reported as 44 µM and the “serum drug level maintained” value ([2]; 4-week old FVB male mice, oral 10 mg/kg/d over 14 days) is reported as > 1 µM. The Cmax ([2]; oral 5 mg/kg/d, 1 hr post-dosing, read-out: serum Cmax) was 20 µM, the “induction of liver Cyp1a1” value (liver Cyp1a1; daily oral 10 mg/kg, alone and in combination with B(a)P) was > 50 fold and the IC90 [3] was 10000 nM. The EC50 (human AHR; 20 min competitive binding, liver cytosol of hAHR transgenic mice, read-out: EC50 as competitive ligand for human AHR (PAL assay)) was 1000 nM.
